Data taken from US20250171743A1, “HUMAN TOOTH ORGANOIDS” (Katholieke Universiteit Leuven, priority 2022, published 2025).
Each block holds one molecule with its values, some of them ahead of it.

Columns and labels:
tooth organoids [1] = experiment: Effect of TGFβ and TGFβ receptor inhibitor on differentiation of organoids switched to MIM; type: cell-based, human
Text: The above analyses exposed the enrichment of TGFβ pathway processes in tooth organoids subjected to ameloblast differentiation, in line with the proposed key role of TGFβ in amelogenesis. To assess the impact of the TGFβ pathway, organoids grown in TOM (P5) were switch to MIM with or without TGFβ (FIG. 6a).
During tooth root development, Hertwig's epithelial root sheath (HERS), from which epithelial cell rests of Malassez is eventually derived, undergoes EMT to develop to participate in periodontal ligament formation. It has previously been proposed that this EMT process is regulated by TGFβ, thereby triggering HERS/epithelial cell rests of Malassez cells to switch phenotype toward periodontal ligament cells.
Organoids (or dissociated dental follicle) were cultured in mineralization-inducing medium (MIM; Table 3; time schedule, see FIG. 4a and FIG. 10d) as described above. Recombinant human TGFβ1 (10 ng/ml; R&D) and the selective TGFβ receptor 1/2 inhibitor LY2109761 (5 μM; Selleckchem) were added when indicated.
(§1) Primary dental follicle tissue, organoids and assembloid were fixed in 4% PFA for 1h, embedded in paraffin, and sections subjected to hematoxylin and eosin (H&E), immunofluorescence or ARS staining. Antigen retrieval (10 mM citrate, pH6) and permeabilization (0.1% Triton X-100; Sigma-Aldrich) were performed. After incubation with primary and secondary antibodies (Table 5), sections were mounted with Vectashield (DAPI; Vector Laboratories) or DPX mountant (Sigma-Aldrich). Analysis was done using a Leica DM5500 epifluorescence microscope or a Zeiss Axioimager epifluorescence microscope. ImageJ software was used to quantify immunoreactive signal intensity and the ‘corrected total organoid fluorescence’ (CTOF) (=integrated density−(area of organoid×mean fluorescence of background readings).
(§2) RNA was extracted from dissociated dental follicle, organoids and assembloids using the GenElute Mammalian Total RNA Miniprep Kit (Sigma-Aldrich) according to the manufacturer's instructions. RNA was reverse-transcribed (RT) using the Superscript III First-Strand Synthesis Supermix (Thermo Fisher Scientific) and the resultant cDNA samples were analysed with SYBR Green-based quantitative PCR (qPCR) using the StepOnePlus Real-Time PCR System (AB Applied Biosystems). Forward and reverse primers (Table 6) were designed using PrimerBank and PrimerBlast. Glyceraldehyde-3-phosphate dehydrogenase (GAPDH) was included as housekeeping gene. Relative gene expression levels were calculated as ΔCt (Ct target−Ct housekeeping gene) and compared to control (see figure legends).

human dental follicle = experiment: Organoid formation from dissociated dental follicle; essentiality of medium factors assessed by omitting; type: cell-based; details: individual factor omitted from medium; P0, day 14 (FIG. 7a)
Text: To develop epithelial organoids starting from human tooth, the dental follicle, known to encompass a large mesenchymal component but also the small epithelial epithelial cell rests of Malassez compartment, was isolated from unerupted third molars (wisdom teeth) extracted from adolescent patients (FIG. 1a). After tissue dissociation, the epithelial-mesenchymal cell mixture, comprising single cells and cell clusters, was embedded in Matrigel and cultured in a precisely defined medium. Organoids are typically established using a cocktail of growth and regulatory factors active in the tissue's epithelial stem cell niche. In case niche signals are unresolved, factors with a key role in the tissue's embryonic development are applied. […] The starting point is a medium containing these factors as well as generic organoid growth factors (such as WNT activators, nicotinamide, BMP inhibitor and p38 MAPK inhibitor), and assessed the essentiality of individual factors by omitting. […] Eventually, this systematic evaluation led to defining an optimized medium (further referred to as tooth organoid medium or TOM; Table 1), allowing to develop organoid lines from dental follicle samples at 100% efficiency (Table 2).
Third molars, predominantly unerupted, were extracted from adolescent patients (Table 2) at the ‘Oral and Maxillo-Facial Surgery-Imaging & Pathology (OMFS-IMPATH)’ unit of University Hospitals (UZ) Leuven after informed consent. The study was approved by the Ethics Committee Research UZ/KU Leuven (13/0104U). For sample collection, the gingiva was pushed aside after which the bone was perforated and the third molars with associated dental follicles were carefully isolated (without the visually distinct gingiva). dental follicle tissue was diligently peeled from the tooth and collected in Eagle's Minimum Essential Medium (αMEM; Sigma-Aldrich) supplemented with 10% foetal bovine serum (FBS; Sigma-Aldrich), 1% penicillin-streptomycin (Gibco) and 0.5% fungizone (Amphotericin B; Gibco). Following short rinsing steps in 70% ethanol and phosphate-buffered saline (PBS; Gibco), tissue was minced into small (˜1 mm^2) fragments, and further dissociated using collagenase VI (3 mg/ml; Thermo Fisher Scientific) and dispase II (4 mg/ml; Sigma-Aldrich) for 2 h at 37° C., while regularly pipetting up and down. The single cells and few small cell clusters were collected through a 40 μm cell strainer (Corning) while removing the remaining larger and fibrous tissue fragments.
(§3) The dissociated dental follicle cell material was resuspended in a mixture of serum-free defined medium (SFDM; Thermo Fisher Scientific; Table 4) and growth factor-reduced Matrigel (Corning) in a 30:70 ratio, which was plated in 48-well plates at 20,000 cells per 20 μL drop. After solidification, tooth organoid medium (TOM; Table 1), unless indicated otherwise, was supplemented. ROCK inhibitor (RI; 10 μM; Merck Millipore) was added the first day of seeding (or passaging). Organoid cultures were kept at 37° C. in a 1.9% CO2 incubator, and medium was refreshed every 2 to 3 days, each time supplemented with fungizone (0.1%).

assembloids = experiment: Assembloids (organoid-derived epithelial cells plus DPSCs) cultured in TOM+αMEM with TGFβ receptor inhibitor; type: cell-based, human; details: inhibitor 5 μM in TOM+αMEM
Description: It was chosen to use DPSCs to mimic early stages of tooth development in which DPSC-derived odontoblasts are in close contact with ameloblasts. The DPSCs, isolated, grown and characterized using well-defined standard protocols, were combined with organoid-derived epithelial stem cells in a layered approach, thereby forming composite organoids (assembloids) which were cultured in a mixture of TOM and the DPSC growth medium αMEM (FIG. 6d).
Whereas ODAM is not present in the straight (pure) epithelial organoids cultured in TOM (see above and FIG. 12c), it is expressed in the assembloids (FIG. 6d). This induction is not due to the addition of αMEM to TOM (FIG. 12c). […]
Primary dental follicle tissue, organoids and assembloid were fixed in 4% PFA for 1h, embedded in paraffin, and sections subjected to hematoxylin and eosin (H&E), immunofluorescence or ARS staining. […] ImageJ software was used to quantify immunoreactive signal intensity and the ‘corrected total organoid fluorescence’ (CTOF) (=integrated density−(area of organoid×mean fluorescence of background readings).
RNA was extracted from dissociated dental follicle, organoids and assembloids using the GenElute Mammalian Total RNA Miniprep Kit (Sigma-Aldrich) according to the manufacturer's instructions. […] Relative gene expression levels were calculated as ΔCt (Ct target−Ct housekeeping gene) and compared to control (see figure legends).

tooth organoids [2] = experiment: EGF supplementation of tooth organoid cultures (TOM+EGF): proliferation and EMT; type: cell-based, human
Text: To establish organoids from primary tissues, supplementation of EGF is generally found quintessential. […] In vivo, it is known that elevated EGF levels in the epithelial cell rests of Malassez compartment (as, for instance, occurring upon tooth movement, infection or trauma) activates epithelial cell rests of Malassez cell proliferation [Davis (2018) J. Vet. Dent. 35, 290-298]. […] It has been proposed that EMT induction in the epithelial cell rests of Malassez (as, for instance, occurring upon damaging tooth impact) enables the cells to migrate and eventually contribute to regeneration of neighbouring tissues [Davis (2018) J. Vet. Dent. 35, 290-298].
as §3, §1
as §2, with “Glyceraldehyde-3-phosphate dehydrogenase (GAPDH) was included as housekeeping gene.” left out

VIM expression in the epithelial (CK5+) organoids (tooth organoids [1]; MIM with TGFβ): further increased | AMTN gene expression (tooth organoids [1]; MIM with TGFβ 10 ng/ml, RT-qPCR): increased expression | expression of periodontal ligament-specific genes POSTN and COL3A1 (tooth organoids [1]; MIM with TGFβ, RT-qPCR): significantly stimulated | ODAM expression (immunofluorescence) (tooth organoids [1]; TOM-grown P5 organoids switched to MIM with TGFβ 10 ng/ml): further upregulated
Molecule: transforming growth factor-beta [TGFβ]

Molecule: Oc1ccc(-c2nc(-c3ccncc3)c(-c3ccc(F)cc3)[nH]2)cc1 [SB202190, reference compound]
need of the factor for efficient organoid formation (human dental follicle): needed for efficient organoid formation

effect of TGFβ on ODAM and AMTN expression (tooth organoids [1]; inhibitor 5 μM added simultaneously with TGFβ in MIM): blocked | upregulated ODAM and AMTN expression in MIM (tooth organoids [1]; inhibitor 5 μM, without exogenous TGFβ): strongly reduced
Molecule: c1ccc(-c2nn3c(c2-c2ccnc4cc(OCCN5CCOCC5)ccc24)CCC3)nc1 [LY2109761, reference compound]
AMTN expression in the assembloids (assembloids): reduced | ODAM protein expression in the assembloids (assembloids): completely abolished

Molecule: insulin-like growth factor-1 [IGF1]
need of the factor for efficient organoid formation (human dental follicle): needed for efficient organoid formation

Molecule: sonic hedgehog [SHH]
need of the factor for efficient organoid formation (human dental follicle): needed for efficient organoid formation

Molecule: NC(=O)c1cccnc1 [nicotinamide, reference compound]
need of the factor for efficient organoid formation (human dental follicle): needed for efficient organoid formation

Molecule: FGF2
need of the factor for efficient organoid formation (human dental follicle): needed for efficient organoid formation

Molecule: epidermal growth factor [EGF]
number of proliferating (KI67+) cells in the organoids (tooth organoids [2]; EGF 50 ng/ml to initiating cultures, P0, day 7): increased number | proliferation (tooth organoids [2]; EGF 50 ng/ml, P0, day 14): decline in proliferation | EMT / VIM expression in the organoids' border (tooth organoids [2]; EGF 50 ng/ml, P0, day 14, colocalized with CK5 or P63): induction of an EMT process | VIM+ cells after EGF exposure following growth and expansion in TOM (tooth organoids [2]; P5, day 14, also cell migration out of organoids): appearance of VIM^+ cells

B1: Noggin (protein, UniProt Q13253 28-232, looked up)
Noggin: QHYLHIRPAPSDNLPLVDLIEHPDPIFDPKEKDLNETLLRSLLGGHYDPGFMATSPPEDRPGGGGGAAGGAEDLAELDQLLRQRPSGAMPSEIKGLEFSEGLAQGKKQRLSKKLRRKLQMWLWSQTFCPVLYAWNDLGSRFWPRYVKVGSCFSKRSCSVPEGMVCKPSKSVHLTVLRWRCQRRGGQRCGWIPIQYPIISECKCSC
need of the factor for efficient organoid formation (human dental follicle): needed for efficient organoid formation

B2: FGF8 (protein, UniProt P55075 23-233, looked up)
Fibroblast growth factor 8: QEGPGRGPALGRELASLFRAGREPQGVSQQHVREQSLVTDQLSRRLIRTYQLYSRTSGKHVQVLANKRINAMAEDGDPFAKLIVETDTFGSRVRVRGAETGLYICMNKKGKLIAKSNGKGKDCVFTEIVLENNYTALQNAKYEGWYMAFTRKGRPRKGSKTRQHQREVHFMKRLPRGHHTTEQSLRFEFLNYPPFTRSLRGSQRTWAPEPR
notes: fibroblast growth factor
need of the factor for efficient organoid formation (human dental follicle): needed for efficient organoid formation

B3: R-spondin 1 (protein, UniProt Q2MKA7 21-263, looked up)
R-spondin-1: SRGIKGKRQRRISAEGSQACAKGCELCSEVNGCLKCSPKLFILLERNDIRQVGVCLPSCPPGYFDARNPDMNKCIKCKIEHCEACFSHNFCTKCKEGLYLHKGRCYPACPEGSSAANGTMECSSPAQCEMSEWSPWGPCSKKQQLCGFRRGSEERTRRVLHAPVGDHAACSDTKETRRCTVRRVPCPEGQKRRKGGQGRRENANRNLARKESKEAGAGSRRRKGQQQQQQQGTVGPLTSAGPA
need of the factor for efficient organoid formation (human dental follicle): needed for efficient organoid formation

B4: FGF10 (protein, UniProt O15520 38-208, looked up)
Fibroblast growth factor 10: QALGQDMVSPEATNSSSSSFSSPSSAGRHVRSYNHLQGDVRWRKLFSFTKYFLKIEKNGKVSGTKKENCPYSILEITSVEIGVVAVKAINSNYYLAMNKKGKLYGSKEFNNDCKLKERIEENGYNTYASFNWQHNGRQMYVALNGKGAPRRGQKTRRKNTSAHFLPMVVHS
notes: fibroblast growth factor
need of the factor for efficient organoid formation (human dental follicle): needed for efficient organoid formation
